Measured values reported in PubChem BioAssay (NCI).
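1) Cells in 96-well plates. 2) Compound, 48 h, 5 concentrations. 3) Linear interpolation between surrounding doses. 4) Unreached endpoint = highest concentration. GI50 is the concentration that inhibits growth by half. TGI is the concentration that stops growth completely.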

How the values were obtained:
Assay in all cases: NCI-60 cell line screen, 48 h
[1] = test system: UACC-257 melanoma
[2] = test system: BT-549 breast
[3] = test system: HCT-15 colon
[4] = test system: NCI-H23 lung
[5] = test system: NCI-H522 lung
[6] = test system: SK-MEL-28 melanoma
[7] = test system: DU-145 prostate
[8] = test system: HCC-2998 colon
[9] = test system: SK-OV-3 ovarian
[10] = test system: SR leukemia
[11] = test system: OVCAR-5 ovarian
[12] = test system: MDA-MB-435
[13] = test system: M14 melanoma
[14] = test system: SF-268 CNS
[15] = test system: RXF 393 renal
[16] = test system: MCF7 breast
[17] = test system: COLO 205 colon
[18] = test system: PC-3 prostate
[19] = test system: SNB-75 CNS
[20] = test system: HOP-62 NSCLC
[21] = test system: CAKI-1 renal
[22] = test system: SK-MEL-5 melanoma
[23] = test system: SW-620 colon
[24] = test system: KM12 colon
[25] = test system: NCI/ADR-RES ovarian
[26] = test system: HT29 colon
[27] = test system: A498 renal
[28] = test system: HCT-116 colon
[29] = test system: RPMI-8226 leukemia
[30] = test system: 786-0 renal
[31] = test system: UACC-62 melanoma
[32] = test system: CCRF-CEM leukemia
[33] = test system: LOX IMVI melanoma
[34] = test system: A549 NSCLC
[35] = test system: ACHN renal
[36] = test system: K-562 leukemia
[37] = test system: SK-MEL-2 melanoma
[38] = test system: T-47D breast
[39] = test system: SNB-19 CNS
[40] = test system: NCI-H226 lung
[41] = test system: SF-295 CNS
[42] = test system: EKVX NSCLC
[43] = test system: OVCAR-8 ovarian
[44] = test system: UO-31 renal
[45] = test system: SF-539 CNS
[46] = test system: SN12C renal
[47] = test system: TK-10 renal
[48] = test system: MALME-3M melanoma
[49] = test system: U251 CNS
[50] = test system: HS 578T breast
[51] = test system: IGROV1 ovarian
[52] = test system: HL-60(TB) leukemia
[53] = test system: NCI-H460 lung
[54] = test system: OVCAR-3 ovarian
[55] = test system: MOLT-4 leukemia
[56] = test system: MDA-MB-231 breast
[57] = test system: OVCAR-4 ovarian
[58] = test system: HOP-92 NSCLC

Work on `COc1cc(C2CC(=O)c3c(C)nn(-c4nc5ccccc5[nH]4)c3C2)cc(OC)c1OC` (stereo not drawn) yielded a GI50 [1] greater than 100 µM, a TGI [1] greater than 100 µM and a GI50 [2] of 76.6 µM. For the same compound, the TGI [2] was greater than 100 µM, the GI50 [3] was greater than 100 µM and the TGI [3] was greater than 100 µM. For the same compound, the GI50 [4] was greater than 100 µM, the TGI [4] was greater than 100 µM and the GI50 [5] was 2.64 µM. The TGI [5] was greater than 100 µM, the GI50 [6] was greater than 100 µM and the TGI [6] was greater than 100 µM. The GI50 [7] was greater than 100 µM, the TGI [7] was greater than 100 µM and the GI50 [8] was greater than 100 µM. The TGI [8] was greater than 100 µM, the GI50 [9] was 4.12 µM and the TGI [9] was greater than 100 µM. It also gave a GI50 [10] greater than 100 µM, a TGI [10] greater than 100 µM and a GI50 [11] greater than 100 µM. It also gave a TGI [11] greater than 100 µM, a GI50 [12] greater than 100 µM and a TGI [12] greater than 100 µM. It also gave a GI50 [13] greater than 100 µM, a TGI [13] greater than 100 µM and a GI50 [14] of 8.01 µM. For the same compound, the TGI [14] was greater than 100 µM, the GI50 [15] was 2.12 µM and the TGI [15] was 7.8 µM. It also gave a GI50 [16] greater than 100 µM, a TGI [16] greater than 100 µM and a GI50 [17] greater than 100 µM. It also gave a TGI [17] greater than 100 µM, a GI50 [18] greater than 100 µM and a TGI [18] greater than 100 µM. It also gave a GI50 [19] of 1.72 µM, a TGI [19] of 3.46 µM and a GI50 [20] of 3.61 µM. It also gave a TGI [20] greater than 100 µM, a GI50 [21] greater than 100 µM and a TGI [21] greater than 100 µM. The GI50 [22] was greater than 100 µM, the TGI [22] was greater than 100 µM and the GI50 [23] was greater than 100 µM. The TGI [23] was greater than 100 µM, the GI50 [24] was greater than 100 µM and the TGI [24] was greater than 100 µM. The GI50 [25] was greater than 100 µM, the TGI [25] was greater than 100 µM and the GI50 [26] was greater than 100 µM. For the same compound, the TGI [26] was greater than 100 µM, the GI50 [27] was 7.06 µM and the TGI [27] was greater than 100 µM. The GI50 [28] was 7.39 µM, the TGI [28] was greater than 100 µM and the GI50 [29] was greater than 100 µM. It also gave a TGI [29] greater than 100 µM, a GI50 [30] of 3.34 µM and a TGI [30] greater than 100 µM. The GI50 [31] was 14.6 µM, the TGI [31] was greater than 100 µM and the GI50 [32] was greater than 100 µM. It also gave a TGI [32] greater than 100 µM.

Compound `c1ccc2c(c1)ncn2CCn1ccnc1` has a TGI [2] greater than 100 µM, a TGI [33] greater than 100 µM and a TGI [3] greater than 100 µM. For the same compound, the TGI [4] was greater than 100 µM, the TGI [34] was greater than 100 µM and the TGI [5] was greater than 100 µM. The TGI [35] was greater than 100 µM, the TGI [6] was greater than 100 µM and the TGI [36] was greater than 100 µM. It also gave a TGI [7] greater than 100 µM, a TGI [8] greater than 100 µM and a TGI [9] greater than 100 µM. It also gave a TGI [37] greater than 100 µM, a TGI [38] greater than 100 µM and a TGI [11] greater than 100 µM. For the same compound, the TGI [12] was greater than 100 µM, the TGI [13] was greater than 100 µM and the TGI [39] was greater than 100 µM. The TGI [40] was greater than 100 µM, the TGI [14] was greater than 100 µM and the TGI [15] was greater than 100 µM. It also gave a TGI [41] greater than 100 µM, a TGI [42] greater than 100 µM and a TGI [43] greater than 100 µM. For the same compound, the TGI [16] was greater than 100 µM, the TGI [17] was greater than 100 µM and the TGI [44] was greater than 100 µM. For the same compound, the TGI [45] was greater than 100 µM, the TGI [18] was greater than 100 µM and the TGI [19] was greater than 100 µM. The TGI [46] was greater than 100 µM, the TGI [47] was greater than 100 µM and the TGI [20] was greater than 100 µM. For the same compound, the TGI [48] was greater than 100 µM, the TGI [22] was greater than 100 µM and the TGI [49] was greater than 100 µM. The TGI [50] was greater than 100 µM, the TGI [23] was greater than 100 µM and the TGI [51] was greater than 100 µM. It also gave a TGI [24] greater than 100 µM, a TGI [25] greater than 100 µM and a TGI [26] greater than 100 µM. The TGI [52] was greater than 100 µM, the TGI [27] was greater than 100 µM and the TGI [53] was greater than 100 µM. It also gave a TGI [54] greater than 100 µM, a TGI [55] greater than 100 µM and a TGI [56] greater than 100 µM. For the same compound, the TGI [29] was greater than 100 µM, the TGI [57] was greater than 100 µM and the TGI [30] was greater than 100 µM. The TGI [31] was greater than 100 µM and the TGI [32] was greater than 100 µM.

Compound `O=[N+]([O-])c1ccc(N/N=C/c2ccccc2O)nc1` has a GI50 [1] of 3.13 µM, a TGI [1] of 25 µM and a GI50 [2] of 6.08 µM. It also gave a TGI [2] greater than 100 µM, a GI50 [33] of 0.92 µM and a TGI [33] greater than 100 µM. The GI50 [3] was 0.639 µM, the TGI [3] was greater than 100 µM and the GI50 [4] was 2.45 µM. It also gave a TGI [4] greater than 100 µM, a GI50 [34] of 2.07 µM and a TGI [34] greater than 100 µM. The GI50 [58] was 3.74 µM, the TGI [58] was greater than 100 µM and the GI50 [5] was 0.289 µM. It also gave a TGI [5] greater than 100 µM, a GI50 [35] of 0.594 µM and a TGI [35] greater than 100 µM. It also gave a GI50 [6] of 4.38 µM, a TGI [6] greater than 100 µM and a GI50 [7] of 1.35 µM. It also gave a TGI [7] greater than 100 µM, a GI50 [8] of 1.46 µM and a TGI [8] greater than 100 µM. The GI50 [9] was 2.54 µM, the TGI [9] was greater than 100 µM and the GI50 [37] was 3 µM. For the same compound, the TGI [37] was greater than 100 µM, the GI50 [38] was 3.2 µM and the TGI [38] was greater than 100 µM. The GI50 [11] was 7.33 µM, the TGI [11] was greater than 100 µM and the GI50 [12] was 3.03 µM. It also gave a TGI [12] greater than 100 µM, a GI50 [13] of 1.66 µM and a TGI [13] greater than 100 µM. For the same compound, the GI50 [39] was 3.88 µM, the TGI [39] was greater than 100 µM and the GI50 [40] was 4.6 µM. It also gave a TGI [40] greater than 100 µM, a GI50 [14] of 1.26 µM and a TGI [14] greater than 100 µM. For the same compound, the GI50 [15] was 3.48 µM, the TGI [15] was greater than 100 µM and the GI50 [41] was 2.92 µM. The TGI [41] was greater than 100 µM, the GI50 [42] was 3.58 µM and the TGI [42] was greater than 100 µM. It also gave a GI50 [43] of 0.407 µM, a TGI [43] of 51.2 µM and a GI50 [16] of 0.928 µM. For the same compound, the TGI [16] was greater than 100 µM, the GI50 [17] was 0.544 µM and the TGI [17] was greater than 100 µM. For the same compound, the GI50 [44] was 0.623 µM, the TGI [44] was greater than 100 µM and the GI50 [45] was 2.68 µM. It also gave a TGI [45] greater than 100 µM, a GI50 [18] of 4.3 µM and a TGI [18] greater than 100 µM. The GI50 [19] was 10.6 µM, the TGI [19] was greater than 100 µM and the GI50 [46] was 2.17 µM. The TGI [46] was greater than 100 µM, the GI50 [47] was 3.43 µM and the TGI [47] was greater than 100 µM. It also gave a GI50 [20] of 4.5 µM, a TGI [20] greater than 100 µM and a GI50 [48] of 5.8 µM. It also gave a TGI [48] greater than 100 µM, a GI50 [21] of 0.738 µM and a TGI [21] of 8.37 µM. It also gave a GI50 [22] of 1.61 µM, a TGI [22] greater than 100 µM and a GI50 [49] of 1.69 µM. The TGI [49] was greater than 100 µM, the GI50 [50] was greater than 100 µM and the TGI [50] was greater than 100 µM. For the same compound, the GI50 [23] was 1.14 µM, the TGI [23] was greater than 100 µM and the GI50 [51] was 2.7 µM. For the same compound, the TGI [51] was greater than 100 µM, the GI50 [24] was 1.19 µM and the TGI [24] was greater than 100 µM. For the same compound, the GI50 [25] was 0.373 µM, the TGI [25] was greater than 100 µM and the GI50 [26] was 0.975 µM. It also gave a TGI [26] greater than 100 µM, a GI50 [27] of 63.4 µM and a TGI [27] greater than 100 µM. The GI50 [53] was 1.02 µM, the TGI [53] was greater than 100 µM and the GI50 [54] was 0.368 µM. It also gave a TGI [54] greater than 100 µM, a GI50 [28] of 0.371 µM and a TGI [28] greater than 100 µM. For the same compound, the GI50 [56] was 1.46 µM, the TGI [56] was greater than 100 µM and the GI50 [29] was 0.86 µM. For the same compound, the TGI [29] was greater than 100 µM, the GI50 [57] was 0.408 µM and the TGI [57] was greater than 100 µM. The GI50 [30] was 3.03 µM, the TGI [30] was greater than 100 µM and the GI50 [31] was 2.61 µM. It also gave a TGI [31] of 11.6 µM.
